From the OligoGym collection
Bases are written 5' to 3'; sugars and linkages follow in the same order, as letters with counts (s phosphorothioate, o phosphodiester; PS: all linkages phosphorothioate). The collection does not say whether C is 5-methylated. l = locked nucleic acid (LNA); d = 2'-deoxy (DNA)

target: Tau; test: rat primary cortical neurons, FLIPR, 25 uM ASO

| Sequence | calcium oscillation score |
| --- | --- |
| GGAGTGCTCTTAGCATCAGA (sugars l3 d14 l3, PS) | 14.8 % of control |
| GGATGTTGCCTAATGA (sugars l3 d10 l3, PS) | 0 % of control |
| GGATGTTGCCTAATGAGCCA (sugars l3 d14 l3, PS) | 0 % of control |
| GGCATGATTGTGGGC (sugars l3 d9 l3, PS) | 5.22 % of control |
| GGCATGATTGTGGGCT (sugars l3 d10 l3, PS) | 6.12 % of control |
| GGCCACCTCCTGGTTT (sugars l3 d10 l3, PS) | 39.3 % of control |
| GGCCACCTCCTGGTTTATGA (sugars l3 d14 l3, PS) | 0 % of control |
| GGCCTGATCACAAACC (sugars l3 d10 l3, PS) | 132 % of control |
| GGCCTGATCACAAACCCTGC (sugars l3 d14 l3, PS) | 9.07 % of control |
| GGCGACTTGTACAC (sugars l3 d8 l3, PS) | 117 % of control |
| GGCGACTTGTACACGA (sugars l3 d10 l3, PS) | 69.4 % of control |
| GGCGACTTGTACACGATCTC (sugars l3 d14 l3, PS) | 46.6 % of control |
| GGCGAGTCTACCATGT (sugars l3 d10 l3, PS) | 43.4 % of control |
| GGCGAGTCTACCATGTCGAT (sugars l3 d14 l3, PS) | 91.5 % of control |
| GGCGCAGGCGCGAGCA (sugars l3 d10 l3, PS) | 7.62 % of control |
| GGCGGCGCAGGCGCGA (sugars l3 d10 l3, PS) | 49.6 % of control |
| GGCGGTGACTGCGA (sugars l3 d8 l3, PS) | 41.7 % of control |
| GGCGGTGACTGCGAG (sugars l3 d9 l3, PS) | 51.5 % of control |
| GGCGTTCTCGCGGAAG (sugars l3 d10 l3, PS) | 102 % of control |
| GGCTTTGGCGTTCTCG (sugars l3 d10 l3, PS) | 1.35 % of control |
| GGGACCCAATCTTCGACTGG (sugars l3 d14 l3, PS) | 0 % of control |
| GGGACGTGGGTGATAT (sugars l3 d10 l3, PS) | 27.6 % of control |
| GGGACGTGGGTGATATTGTC (sugars l3 d14 l3, PS) | 0 % of control |

| Sequence | calcium oscillation score |
| --- | --- |
| GGGAGATTCTTTCAGGCCAG (sugars l3 d14 l3, PS) | 48.1 % of control |
| GGGAGGCAGACACCTC (sugars l3 d10 l3, PS) | 42.8 % of control |
| GGGAGGCAGACACCTCGTCA (sugars l3 d14 l3, PS) | 102 % of control |
| GGGCCTGATCACAAACCCTG (sugars l3 d14 l3, PS) | 42.7 % of control |
| GGGCGAGTCTACCATG (sugars l3 d10 l3, PS) | 16.3 % of control |
| GGGCGAGTCTACCATGTCGA (sugars l3 d14 l3, PS) | 66 % of control |
| GGGTGATATTGTCCAGGGAC (sugars l3 d14 l3, PS) | 0 % of control |
| GGTCAACTGGTTTGTA (sugars l3 d10 l3, PS) | 55.6 % of control |
| GGTCAACTGGTTTGTAGACT (sugars l3 d14 l3, PS) | 6.9 % of control |
| GGTCTGAGCTACCAGG (sugars l3 d10 l3, PS) | 14.8 % of control |
| GGTCTGGCATGGGC (sugars l3 d8 l3, PS) | 0 % of control |
| GGTCTGGCATGGGCA (sugars l3 d9 l3, PS) | 59 % of control |
| GGTGATATTGTCCAGG (sugars l3 d10 l3, PS) | 18.5 % of control |
| GGTGATATTGTCCAGGGACC (sugars l3 d14 l3, PS) | 0 % of control |
| GGTGCTCTGGTCAA (sugars l3 d8 l3, PS) | 102 % of control |
| GGTGCTCTGGTCAAGG (sugars l3 d10 l3, PS) | 14.9 % of control |
| GGTTAAGTGATTAACCAATT (sugars l3 d14 l3, PS) | 157 % of control |
| GGTTAGCCCTAAAGTCCCAG (sugars l3 d14 l3, PS) | 37.3 % of control |
| GGTTGGATCAGAGGGT (sugars l3 d10 l3, PS) | 7.41 % of control |
| GGTTTATGATGGATGTTGCC (sugars l3 d14 l3, PS) | 26.6 % of control |
| GGTTTGTAGACTATT (sugars l3 d9 l3, PS) | 0 % of control |
| GGTTTGTAGACTATTTGCAC (sugars l3 d14 l3, PS) | 0 % of control |
| GTAACCAACTTTCATC (sugars l3 d9 l4, PS) | 74.8 % of control |

| Sequence | calcium oscillation score |
| --- | --- |
| GTAACCAACTTTCATCT (sugars l2 d12 l3, PS) | 78.7 % of control |
| GTAGACTATTTGCA (sugars l3 d8 l3, PS) | 105 % of control |
| GTAGACTATTTGCAC (sugars l3 d9 l3, PS) | 95.2 % of control |
| GTAGACTATTTGCACACTGC (sugars l3 d14 l3, PS) | 11.1 % of control |
| GTATCCAGCCATATTTCAAC (sugars l3 d14 l3, PS) | 36.7 % of control |
| GTCAACTGGTTTGT (sugars l3 d8 l3, PS) | 89.4 % of control |
| GTCAATTTAAATGGA (sugars l3 d9 l3, PS) | 66.7 % of control |
| GTCACCACTTTAATCT (sugars l4 d9 l3, PS) | 85.3 % of control |
| GTCACCTTGCTCAGGT (sugars l3 d10 l3, PS) | 7.67 % of control |
| GTCAGCTAGCGTGGCG (sugars l3 d10 l3, PS) | 27.6 % of control |
| GTCATCGCTTCCAGTC (sugars l3 d10 l3, PS) | 85.7 % of control |
| GTCCAAACTTTTACTCT (sugars l4 d11 l2, PS) | 75.7 % of control |
| GTCCACAAACCAACTCA (sugars l3 d11 l3, PS) | 91.3 % of control |
| GTCCAGGGACCCAATCTTCG (sugars l3 d14 l3, PS) | 0 % of control |
| GTCCCCCAAAATATCTC (sugars l3 d12 l2, PS) | 72.1 % of control |
| GTCCCGAGCCAAAG (sugars l3 d8 l3, PS) | 0 % of control |
| GTCCCGAGCCAAAGC (sugars l3 d9 l3, PS) | 31.3 % of control |
| GTCCCGAGCCAAAGCC (sugars l3 d10 l3, PS) | 31.3 % of control |
| GTCCCGTCTTTGCTTT (sugars l3 d10 l3, PS) | 31.3 % of control |
| GTCCTAATCCTGTGC (sugars l3 d9 l3, PS) | 36.5 % of control |
| GTCCTAATCCTGTGCT (sugars l3 d10 l3, PS) | 87.8 % of control |
| GTCCTCACTTTACACATT (sugars l3 d13 l2, PS) | 41 % of control |
| GTCGATGCTGCCGG (sugars l3 d8 l3, PS) | 36.5 % of control |

| Sequence | calcium oscillation score |
| --- | --- |
| GTCGATGCTGCCGGTG (sugars l3 d10 l3, PS) | 0 % of control |
| GTCTACCATGTCGATGCTGC (sugars l3 d14 l3, PS) | 23.2 % of control |
| GTCTCAAATCAAACTA (sugars l4 d8 l4, PS) | 60.6 % of control |
| GTCTGAGCTACCAGGA (sugars l3 d10 l3, PS) | 11.7 % of control |
| GTCTGGCATGGGCAC (sugars l3 d9 l3, PS) | 62.9 % of control |
| GTCTGTCTTGGCTTTG (sugars l3 d10 l3, PS) | 0 % of control |
| GTCTTCACATCCCAACT (sugars l4 d11 l2, PS) | 82.1 % of control |
| GTCTTCCTGAAGGACACCTG (sugars l3 d14 l3, PS) | 0 % of control |
| GTCTTGGCTTTGGCGT (sugars l3 d10 l3, PS) | 20.9 % of control |
| GTCTTTATTAACACTCC (sugars l4 d11 l2, PS) | 63.3 % of control |
| GTCTTTGCTTTTACTGACCA (sugars l3 d14 l3, PS) | 44.4 % of control |
| GTGACAGAAGAGACGT (sugars l3 d10 l3, PS) | 0 % of control |
| GTGATATTGTCCAGGG (sugars l3 d10 l3, PS) | 14.8 % of control |
| GTGATATTGTCCAGGGACCC (sugars l3 d14 l3, PS) | 0 % of control |
| GTGATGCAGGAGTT (sugars l3 d8 l3, PS) | 64.8 % of control |
| GTGATGCAGGAGTTGT (sugars l3 d10 l3, PS) | 13.5 % of control |
| GTGATTAACCAATTAACCGA (sugars l3 d14 l3, PS) | 6.48 % of control |
| GTGGCGGTGACTGCGA (sugars l3 d10 l3, PS) | 62.6 % of control |
| GTGGGTGATATTGTCCAGGG (sugars l3 d14 l3, PS) | 0 % of control |
| GTGTTTGATATTATCC (sugars l3 d10 l3, PS) | 46.7 % of control |
| GTTAACTCATCAACAC (sugars l4 d9 l3, PS) | 59 % of control |
| GTTAACTCATCAACACC (sugars l4 d10 l3, PS) | 86.6 % of control |
| GTTAAGTGATTAACCAATTA (sugars l3 d14 l3, PS) | 84.3 % of control |

| Sequence | calcium oscillation score |
| --- | --- |
| GTTAGCCCTAAAGT (sugars l3 d8 l3, PS) | 61 % of control |
| GTTAGCCCTAAAGTCC (sugars l3 d10 l3, PS) | 110 % of control |
| GTTAGCCCTAAAGTCCCAGG (sugars l3 d14 l3, PS) | 27.9 % of control |
| GTTATACAGTTGGCCCTACC (sugars l3 d14 l3, PS) | 14.3 % of control |
| GTTGCCTAATGAGCCA (sugars l3 d10 l3, PS) | 46.1 % of control |
| GTTGCCTAATGAGCCACACT (sugars l3 d14 l3, PS) | 59.8 % of control |
| GTTGGATCAGAGGGTC (sugars l3 d10 l3, PS) | 22.2 % of control |
| GTTTATGATGGATGTTGCCT (sugars l3 d14 l3, PS) | 3.32 % of control |
| GTTTGTAGACTATT (sugars l3 d8 l3, PS) | 125 % of control |
| GTTTGTAGACTATTT (sugars l3 d9 l3, PS) | 0 % of control |
| GTTTTCAAACACACCTT (sugars l3 d10 l4, PS) | 104 % of control |
| GTTTTTTAACTCCCAAC (sugars l4 d9 l4, PS) | 74.1 % of control |
| TAAAGTCCCAGGTC (sugars l3 d8 l3, PS) | 72.4 % of control |
| TAAAGTCCCAGGTCT (sugars l3 d9 l3, PS) | 124 % of control |
| TAAATACATCAATAGAAGGC (sugars l3 d14 l3, PS) | 50.4 % of control |
| TAACCAACTTTCATCTAC (sugars l4 d10 l4, PS) | 98.4 % of control |
| TAACCAACTTTCATCTACTT (sugars l3 d14 l3, PS) | 47.2 % of control |
| TAACCAATTAACCGAA (sugars l3 d10 l3, PS) | 179 % of control |
| TAACCAATTAACCGAACTGC (sugars l3 d14 l3, PS) | 125 % of control |
